Data: EP1738741A2, “Use of benzylidene-1,3-thiazolidine-2,4-diones for favouring and/or inducing and/or stimulating the pigmentation of keratinic materials and/or for limiting their depigmentation and/or their bleaching” (L'ORÉAL, priority 2005, dated 2007)
Read-outs that look alike come from different tables or passages of the source.

Assays:
[1] = system: activité tyrosinase de mélanocytes humains normaux; test: Tyrosinase activity of cultured normal human melanocytes after 72 h treatment (L-Dopa substrate, absorbance 450 nm); format: cell-based; conditions: Melanocyte, read-out: Stimulation de l'activité tyrosinase
Description: Des mélanocytes épidermiques humains normaux sont cultivés (9ème passage) dans le milieu "mélanocytes growth medium M2" additionné Des compléments Promocell C24300. De pénicilline 50 UI/ml et de streptomycine 50 µg/ml (Invitrogen) dans des conditions classiques de température (37°C) sous 5% de CO2.
Le composé 5 est solubilisé dans de l'éthanol absolu (PGE2) ou dans du DMSO (inhibiteurs de 15-PGDH). Le titre final des solutions préparées est de 10 mM. Les concentrations finales testées varient de 0.1 à 10 µM (PGE2) et 1 à 10 µM (inhibiteurs de 15-PGDH).
Les essais réalisés consistent à mesurer l'effet d'inhibiteur de 15-PGDH seul ou associé à PGE2* sur l'activité globale de la tyrosinase. * PGE2 est un modulateur de pigmentation désactivé par l'enzyme 15-PGDH.
Les mélanocytes sont cultivés en plaques 96 puits jusqu'à confluence (conditions de culture décrites en a), puis le surnageant de chacun des puits est éliminé et remplacé par du milieu contenant les composés à évaluer.
Soit donc (en triplicate) l' inhibiteur de 15-PGDH seul à 1 µM et 10 µM ou pour chacune de ces premières conditions en présence de 0.1 µM, 1 µM ou 10 µM de PGE2.
Dans ces différentes conditions les cultures sont maintenues 72h00, les surnageants sont ensuite éliminés, les tapis cellulaires sont lavés avec un tampon phosphate (pH=7.2). Les cellules sont lysées avec un tampon phosphate pH=7.2 contenant 1% de triton X100.
L'activité tyrosinase de chacun des lysats est ensuite estimée contre une gamme tyrosinase de champignon (Sigma T7755).
La méthodologie mise en oeuvre utilise la L-Dopa comme substrat de réaction (45 min à 37°C), la formation de mélanine est appréciée par mesure de l'absorbance à 450 nm.
Dans ce test, deux références sont également évaluée: l'acide kojique (un inhibiteur de tyrosinase introduite à 0.1% dans le milieu de culture) et l'isobutyle méthyle xanthine (IBMX) un inhibiteur de phosphodiesterase qui limitant le catabolisme de l'AMPc contribue à l'augmentation de l'activité tyrosinase globale telle qu'appréciée dans ce test.

15-PGDH de type 1 = target: T1, 15-PGDH de type 1 (Homo sapiens, UniProt P15428); test: Test on 15-PGDH type 1: spectrophotometric enzyme inhibition at 340 nm (NAD, PGE2 substrate); format: biochemical
T1 construct: made in house
T1 sequence (P15428 1-266): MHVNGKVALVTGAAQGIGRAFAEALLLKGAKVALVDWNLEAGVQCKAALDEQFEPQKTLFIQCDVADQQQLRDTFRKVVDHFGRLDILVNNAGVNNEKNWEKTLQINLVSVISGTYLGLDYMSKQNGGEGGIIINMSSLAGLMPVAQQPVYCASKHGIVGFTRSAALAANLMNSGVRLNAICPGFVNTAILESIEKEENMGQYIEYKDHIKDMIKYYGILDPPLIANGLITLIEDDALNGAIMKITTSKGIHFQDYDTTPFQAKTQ
Description: L'enzyme 15-PGDH est obtenue comme décrit dans la demande FR 02/05067 déposée au nom de L'Oréal, en suspension dans un milieu adapté à une concentration de 0,3 mg/mL puis bloquée à - 80°C. Pour les besoins du test, cette suspension est décongelée et stockée dans de la glace.
Par ailleurs on prépare un tampon Tris 100 mM, pH = 7,4, contenant 0,1 mM de dithiothréitol (D5545, Sigma-Aldrich, L'isle D'Abeau Chesne, BP 701, 38297, Saint Quentin Fallavier), 1,5 mM de β-NAD (N6522, Sigma-Aldrich, L'isle D'Abeau Chesne, BP 701, 38297, Saint Quentin Fallavier), 50 µM de Prostaglandine E2 (P4172, Sigma-Aldrich, L'isle D'Abeau Chesne, BP 701, 38297, Saint Quentin Fallavier).
Dans la cuve d'un spectrophotomètre (Perkin-Elmer, Lambda 2) thermostaté à 37°C, dont la longueur d'onde de mesure est réglée à 340 nm, sont introduits 0,965 ml de ce tampon (préalablement porté à 37°C). 0,035 mL de suspension enzymatique à 37°C sont introduits dans la cuve concomitamment à l'enregistrement ( correspondant à une augmentation de la densité optique à 340 nm). La vitesse maximale de réaction est relevée.

SMILES	inhibition at 100 µM (15-PGDH de type 1) [%]	other results
CC(C)(C)c1ccc(Oc2ccccc2/C=C2\SC(=O)NC2=O)cc1 [Composé 4]	–	activation at 1 µM [1]: 16%
CCCCC[C@H](O)/C=C/[C@H]1[C@H](O)CC(=O)[C@@H]1C/C=C\CCCC(=O)O [PGE2, Prostaglandine E2]	–	activation at 0.1 µM ([1]; PGE2 alone at 0,1 µM): 3%; activation at 1 µM ([1]; PGE2 alone at 1 uM): 9%; activation at 10 µM ([1]; PGE2 alone at 10 uM): 15%
O=C1NC(=O)/C(=C/c2ccccc2Oc2ccc(F)cc2)S1 [compound 6]	48	–

Now from value to compound, other results behind:

inhibition at 100 µM (15-PGDH de type 1) [%]	SMILES	other results
23	CCN1C(=O)S/C(=C\c2ccccc2Oc2ccc(C(C)(C)C)cc2)C1=O [compound 13]	–
27	CC(C)(C)CC(C)(C)c1ccc(Oc2ccccc2/C=C2/SC(=O)NC2=O)cc1 [compound 15]	–
30	CC(C)(C)c1ccc(Oc2ccccc2/C=C2\SC(=O)NC2=O)c(C(C)(C)C)c1 [compound 17]	–
